Like-named read-outs stand apart in the source and are kept apart here.
Tests used:
[1] = Metabolic stability in cryopreserved human hepatocytes; assay type: in vitro ADME; settings: human
Procedure: (§1) Cryopreserved human hepatocytes (pooled suspension hepatocytes, Gibco) were thawed placing in a 37 °C shaking water bath according to the manufacturer’s specifications and resuspended in Williams E medium (WEM) to have 1 × 10^6 cells/mL. Samples with the test compound at 1 μM were incubated at 37 °C, and aliquots of 50 μL were collected at 0, 10, 30, 60, 120, and 240 min. The incubations were quenched 1:3 with ice-cold acetonitrile (containing 1 μM labetalol as the internal standard). Samples were then centrifuged at 12000 rpm for 5 min at 4 °C. The supernatant was concentrated by evaporation under a nitrogen stream and reconstituted with DMSO. Blank was prepared similarly but in the absence of the investigated compounds.
(§2) A Thermo Q-exactive mass spectrometer (Thermo Fisher Scientific, Waltham, MA) was used. The LC system, governed by Chromeleon X-press software, consists of a Binary pump, a thermostated autosampler, and a column compartment, all Dionex Ultimate 3000 series modules (Thermo Fisher Scientific, Waltham, MA). A volume of 2 μL was injected for each sample. Chromatographic separation of analytes was conducted in reverse-phase chromatography. In brief, a Luna Omega 1.6 μm Polar (C18, 2.1 mm × 150 mm) was used, and the mobile phases consisted of water (A) and acetonitrile (B), both containing formic acid at 0.1%. The LC flow was set at 0.400 mL/min in a 12 min gradient elution as follows: 99.5:0.5 (A/B) to 5:95 (A/B) over 10 min, 5:95 (A/B) for 2 min, and then reversion back to 99.5:0.5 (A/B) over 2.5 min. The column was operating at a constant temperature of 40 °C.

[2] = tested on: cryopreserved human hepatocytes; assay: as above; assay type: in vitro ADME; settings: for substrate left: cryopreserved human hepatocytes, end of incubation (240 min)
Procedure: as §1, §2

[3] = Nonenzymatic stability of 1 (dBet1) in the autosampler in four solutions during LC-MS; assay type: physicochemical; settings: for nonenzymatic stability in autosampler: 12 h
Procedure: dBet1 (1) (10 mM in DMSO) was diluted 1:1000 in PBS/ACN (50:50, vol/vol) to afford a final concentration of 10 μM; 100 μL was drawn and dried under a gentle nitrogen stream at 40 °C for 30 min. After that evaporation was completed, the dry residue was reconstituted with 100 μL of DMSO. Additional three solutions of dBet1 (1) (10 μM) were prepared in PBS, PBS/ACN (50:50, vol/vol), and DMSO. The four solutions were stored into the autosampler of the LC apparatus at 37 °C for 12 h. Injections (2 μL) were programmed every 3 h.

[4] = cryopreserved human hepatocytes (pooled, suspension), Table 2, cryopreserved human hepatocytes, read-out: t1/2
[5] = cryopreserved human hepatocytes (pooled, suspension), Table S1, PROTACs, cryopreserved human hepatocytes, read-out: t1/2
[6] = cryopreserved human hepatocytes (pooled, suspension), supplement CSV, human hepatocytes, read-out: HLH t1/2
[7] = Table 2, biotransformations observed in cryopreserved human hepatocytes
[8] = cryopreserved human hepatocytes (pooled, suspension), Table 1, incubation in cryopreserved human hepatocytes, 1 μM, up to 240 min, read-out: t1/2
[9] = cryopreserved human hepatocytes (pooled, suspension), Table S2, free ligands, cryopreserved human hepatocytes, read-out: t1/2
[10] = Table 1, biotransformations observed in cryopreserved human hepatocytes
[11] = cryopreserved human hepatocytes (pooled, suspension), Figures 3-5, cryopreserved human hepatocytes, read-out: half-life (t1/2)
[12] = supplement CSV, in brackets, final time point 240 min

half-life at 1 µM [1, 5] [h] | half-life at 1 µM [1, 6] [h] | half-life at 1 µM [1, 11] [h] | SMILES | also measured
0.793 | 0.793 |  | O=C(COc1c(-c2csc(N3CCOCC3)n2)ccc(F)c1F)NCCCCCCCCNc1cccc2c1C(=O)N(C1CCC(=O)NC1=O)C2=O (stereo not drawn) [Compound 30, 2-(2,3-Difluoro-6-(2-morpholinothiazol-4-yl)phenoxy)-N-(8-((2-(2,6-dioxopiperidin-3-yl)-1,3-dioxoisoindolin-4-yl)amino)octyl)acetamide] | half-life at 1 µM [1, 4]: 0.793 h; Reaction (soft spots) [2, 7]: a. Amide hydrolysis b. N-dealkylation c. O-dealkylation d. Aliphatic-hydroxylation
 |  |  | Cc1sc2c(c1C)C(c1ccc(Cl)cc1)=N[C@@H](CC(=O)O)c1nnc(C)n1-2 [Compound 43, (+)-JQ1, reference compound] | half-life at 1 µM ([1]; hepatocytes, HLH t1/2 (min)): > 4 h; half-life at 1 µM ([1]; hepatocytes, t1/2 (min)): > 4 h; Reaction (soft spots) [2]: a. Aliphatic-hydroxylation; HLH percentage of substrate left at the final time point of analysis ([2]; human, 240 min, 1 µM): 100.0%
 | 2.33 |  | Nc1cccc2c1C(=O)N(C1CCC(=O)NC1=O)C2=O (stereo not drawn) [Compound 41, pomalidomide, reference compound] | half-life at 1 µM [1, 8]: 2.33 h; half-life at 1 µM [1, 9]: 2.33 h; Reaction (soft spots) [2, 10]: a. Amide Hydrolysis (x4)
> 4 | > 4 | > 4 | Cc1ncsc1-c1ccc([C@H](C)NC(=O)[C@@H]2C[C@@H](O)CN2C(=O)[C@@H](NC(=O)CCCCn2cc(CCCC(=O)N3CCN(C(=O)c4cc(Cc5n[nH]c(=O)c6ccccc56)ccc4F)CC3)nn2)C(C)(C)C)cc1 [Compound 25, (2S,4R)-1-((S)-2-(5-(4-(4-(4-(2-Fluoro-5-((4-oxo-3,4-dihydrophthalazin-1-yl)methyl)benzoyl)piperazin-1-yl)-4-oxobutyl)-1H-1,2,3-triazol-1-yl)pentanamido)-3,3-dimethylbutanoyl)-4-hydroxy-N-((S)-1-(4-(4-methylthiazol-5-yl)phenyl)ethyl)pyrrolidine-2-carboxamide] | substrate left [2]: about 84%; HLH percentage of substrate left at the final time point of analysis [2, 12]: 84.7%
> 4 | > 4 | > 4 | Cc1ncsc1-c1ccc([C@H](C)NC(=O)[C@@H]2C[C@@H](O)CN2C(=O)[C@@H](NC(=O)CCN2CCN(C(=O)C[C@@H]3N=C(c4ccc(Cl)cc4)c4c(sc(C)c4C)-n4c(C)nnc43)CC2)C(C)(C)C)cc1 [Compound 11, (2S,4R)-1-((S)-2-(3-(4-(2-((S)-4-(4-Chlorophenyl)-2,3,9-trimethyl-6H-thieno[3,2-f][1,2,4]triazolo[4,3-a][1,4]diazepin-6-yl)acetyl)piperazin-1-yl)propanamido)-3,3-dimethylbutanoyl)-4-hydroxy-N-((S)-1-(4-(4-methylthiazol-5-yl)phenyl)ethyl)pyrrolidine-2-carboxamide] | HLH percentage of substrate left at the final time point of analysis [2, 12]: 70.0%
0.14 | 0.14 | 0.14 | O=C(COc1cccc2c1C(=O)N(C1CCC(=O)NC1=O)C2=O)NCCCCCCCCNC(=O)COc1c(-c2csc(N3CCOCC3)n2)ccc(F)c1F (stereo not drawn) [Compound 26, 2-(2,3-Difluoro-6-(2-morpholinothiazol-4-yl)phenoxy)-N-(8-(2-((2-(2,6-dioxopiperidin-3-yl)-1,3-dioxoisoindolin-4-yl)oxy)acetamido)octyl)acetamide] | half-life at 1 µM [1, 4]: 0.14 h; Reaction (soft spots) [2, 7]: a. Amide hydrolysis b. N-dealkylation c. O-dealkylation
2.25 | 2.25 | 2.25 | Cc1sc2c(c1C)C(c1ccc(Cl)cc1)=N[C@@H](CC(=O)NCCCCNC(=O)COc1cccc3c1C(=O)N(C1CCC(=O)NC1=O)C3=O)c1nnc(C)n1-2 (stereo partly drawn) [Compound 1, dBet1] | nonenzymatic stability in autosampler ([3]; PBS/ACN (1:1 v/v), 37 °C): Degradation was also observed; substrate degradation within the first three hours ([3]; PBS/ACN-DMSO protocol, autosampler 37 °C): about 10%; nonenzymatic stability in autosampler ([3]; pure DMSO, 37 °C): very stable over time; nonenzymatic stability in autosampler ([3]; pure PBS pH 7.4, 37 °C): rapidly degrades
0.918 | 0.918 |  | Cc1sc2c(c1C)C(c1ccc(Cl)cc1)=N[C@@H](CC(=O)NCCCCCCCCNc1cccc3c1C(=O)N(C1CCC(=O)NC1=O)C3=O)c1nnc(C)n1-2 (stereo partly drawn) [Compound 4, 2-((S)-4-(4-Chlorophenyl)-2,3,9-trimethyl-6H-thieno[3,2-f][1,2,4]triazolo[4,3-a][1,4]diazepin-6-yl)-N-(8-((2-(2,6-dioxopiperidin-3-yl)-1,3-dioxoisoindolin-4-yl)amino)octyl)acetamide] | half-life at 1 µM [1, 8]: 0.918 h; Reaction (soft spots) [2, 10]: a. N-dealkylation (x2) b. Aliphatic-hydroxylation c. Dehydrogenation*
 | 1.53 |  | Cc1ncsc1-c1ccc([C@H](C)NC(=O)[C@@H]2C[C@@H](O)CN2C(=O)[C@@H](N)C(C)(C)C)cc1 [Compound 42, reference compound] | half-life at 1 µM [1, 8]: 1.53 h; half-life at 1 µM [1, 9]: 1.53 h; Reaction (soft spots) [2, 10]: a. N-dealkylation b. Aromatic hydroxylation c. Aliphatic-hydroxylation d. Aliphatic-carbonylation
0.657 | 0.657 |  | O=C(COc1cccc2c1C(=O)N(C1CCC(=O)NC1=O)C2=O)NCCOCCOCCNC(=O)COc1c(-c2csc(N3CCOCC3)n2)ccc(F)c1F (stereo not drawn) [Compound 27, 2-(2,3-Difluoro-6-(2-morpholinothiazol-4-yl)phenoxy)-N-(2-(2-(2-(2-((2-(2,6-dioxopiperidin-3-yl)-1,3-dioxoisoindolin-4-yl)oxy)acetamido)ethoxy)ethoxy)ethyl)acetamide] | half-life at 1 µM [1, 4]: 0.657 h; Reaction (soft spots) [2, 7]: a. Amide hydrolysis b. O-dealkylation (x3) c. Aliphatic-hydroxylation
 | > 4 |  | Cl.O=C(c1cc(Cc2n[nH]c(=O)c3ccccc23)ccc1F)N1CCNCC1 [Compound 45, reference compound] | half-life at 1 µM [1, 9]: > 4 h; HLH percentage of substrate left at the final time point of analysis [2, 12]: 77.7%
0.627 | 0.627 |  | Cc1ncsc1-c1ccc([C@H](C)NC(=O)[C@@H]2C[C@@H](O)CN2C(=O)[C@@H](NC(=O)COCCOCCNC(=O)COc2c(-c3csc(N4CCOCC4)n3)ccc(F)c2F)C(C)(C)C)cc1 [Compound 37] | half-life at 1 µM [1, 8]: 0.627 h; Reaction (soft spots) [2, 10]: a. O-dealkylation (x5) b. Amide Hydrolysis (x2) c. Glucuronidation d. Dehydrogenation
 | 0.305 | < 0.333 | Oc1c(-c2csc(N3CCOCC3)n2)ccc(F)c1F [Compound 46, reference compound] | half-life at 1 µM [1, 8]: 0.305 h; half-life at 1 µM [1, 9]: 0.305 h; Reaction (soft spots) [2, 10]: a. O-dealkylation b.Glucuronidation c. Aliphatic hydroxylation
> 4 | > 4 | > 4 | Cc1ncsc1-c1ccc([C@H](C)NC(=O)[C@@H]2C[C@@H](O)CN2C(=O)[C@@H](NC(=O)CCCCn2cc(CN3CCN(C(=O)c4cc(Cc5n[nH]c(=O)c6ccccc56)ccc4F)CC3)nn2)C(C)(C)C)cc1 [Compound 24, (2S,4R)-1-((S)-2-(5-(4-((4-(2-Fluoro-5-((4-oxo-3,4-dihydrophthalazin-1-yl)methyl)benzoyl)piperazin-1-yl)methyl)-1H-1,2,3-triazol-1-yl)pentanamido)-3,3-dimethylbutanoyl)-4-hydroxy-N-((S)-1-(4-(4-methylthiazol-5-yl)phenyl)ethyl)pyrrolidine-2-carboxamide] | substrate left [2]: about 84%; HLH percentage of substrate left at the final time point of analysis [2, 12]: 84.3%
2.65 | 2.65 |  | Cc1ncsc1-c1ccc([C@H](C)NC(=O)[C@@H]2C[C@@H](O)CN2C(=O)[C@@H](NC(=O)COCCCNC(=O)c2ccc3c(c2)nc(Nc2cccc(Cl)c2)c2ccncc23)C(C)(C)C)cc1 [Compound 19, 5-((3-Chlorophenyl)amino)-N-(3-(2-(((S)-1-((2S,4R)-4-hydroxy-2-(((S)-1-(4-(4-methylthiazol-5-yl)phenyl)ethyl)carbamoyl)pyrrolidin-1-yl)-3,3-dimethyl-1-oxobutan-2-yl)amino)-2-oxoethoxy)propyl)benzo[c][2,6]naphthyridine-8-carboxamide] | 
3.63 | 3.63 | 3.63 | Cc1ncsc1-c1ccc([C@H](C)NC(=O)[C@@H]2C[C@@H](O)CN2C(=O)[C@@H](NC(=O)CN2CCN(C(=O)c3ccc4c(c3)nc(Nc3cccc(Cl)c3)c3ccncc34)CC2)C(C)(C)C)cc1 [Compound 20, (2S,4R)-1-((S)-2-(2-(4-(5-((3-Chlorophenyl)amino)benzo[c][2,6]naphthyridine-8-carbonyl)piperazin-1-yl)acetamido)-3,3-dimethylbutanoyl)-4-hydroxy-N-((S)-1-(4-(4-methylthiazol-5-yl)phenyl)ethyl)pyrrolidine-2-carboxamide] | 
3.5 | 3.5 |  | Cc1ncsc1-c1ccc(CNC(=O)[C@@H]2C[C@@H](O)CN2C(=O)[C@@H](NC(=O)COCCOCCOCCNC(=O)C[C@@H]2N=C(c3ccc(Cl)cc3)c3c(sc(C)c3C)-n3c(C)nnc32)C(C)(C)C)cc1 [Compound 7, MZ1, reference compound] | 

Source: paper PMC8015227, “Understanding the Metabolism of Proteolysis Targeting Chimeras (PROTACs): The Next Step toward Pharmaceutical Applications” (Journal of Medicinal Chemistry, 2020)
